Measured values: ChEMBL document CHEMBL3784929, “Pharmacokinetics of valproic acid in volunteers after a single dose study” (Biopharm Drug Dispos, 1985)

Key:
Type in all cases: ADME, organism-based
[1] = system: Serum; assay: Unbound serum concentration in healthy human (6 volunteers) at 1 g, po administered as single dose measured after 5 hrs by enzyme multiple immunotechnique; details: in vivo
[2] = Total serum concentration in healthy human (6 volunteers) at 1 g, po administered as single dose measured after 10 hrs by gas liquid chromatography; details: read-out: Drug uptake
[3] = Fraction unbound in healthy human (6 volunteers) serum at 1 g, po administered as single dose measured after 2 hrs
[4] = Fraction unbound in healthy human (6 volunteers) serum assessed as ratio of fAUC to total AUC at 1 g, po administered as single dose by gas liquid chromatography
[5] = Fraction unbound in healthy human (6 volunteers) serum at 1 g, po administered as single dose measured after 3 hrs
[6] = Fraction unbound in healthy human (6 volunteers) serum at 1 g, po administered as single dose measured after 0.33 hrs
[7] = Fraction unbound in healthy human (6 volunteers) serum at 1 g, po administered as single dose measured after 4 hrs
[8] = system: Serum; assay: Unbound serum concentration in healthy human (6 volunteers) at 1 g, po administered as single dose measured after 39 hrs by enzyme multiple immunotechnique; details: in vivo
[9] = system: Serum; assay: Unbound serum concentration in healthy human (6 volunteers) at 1 g, po administered as single dose measured after 8 hrs by enzyme multiple immunotechnique; details: in vivo
[10] = system: Serum; assay: Unbound serum concentration in healthy human (6 volunteers) at 1 g, po administered as single dose measured after 0.33 hrs by enzyme multiple immunotechnique; details: in vivo
[11] = system: Serum; assay: Unbound serum concentration in healthy human (6 volunteers) at 1 g, po administered as single dose measured after 3 hrs by enzyme multiple immunotechnique; details: in vivo
[12] = Total serum concentration in healthy human (6 volunteers) at 1 g, po administered as single dose measured after 1 hr by gas liquid chromatography; details: read-out: Drug uptake
[13] = Total serum concentration in healthy human (6 volunteers) at 1 g, po administered as single dose measured after 48 hrs by gas liquid chromatography; details: read-out: Drug uptake
[14] = system: Serum; assay: Unbound serum concentration in healthy human (6 volunteers) at 1 g, po administered as single dose measured after 1 hr by enzyme multiple immunotechnique; details: in vivo
[15] = system: Serum; assay: Unbound serum concentration in healthy human (6 volunteers) at 1 g, po administered as single dose measured after 48 hrs by enzyme multiple immunotechnique; details: in vivo
[16] = Total serum concentration in healthy human (6 volunteers) at 1 g, po administered as single dose measured after 0.33 hrs by gas liquid chromatography; details: read-out: Drug uptake
[17] = system: Serum; assay: Unbound serum concentration in healthy human (6 volunteers) at 1 g, po administered as single dose measured after 0.66 hrs by enzyme multiple immunotechnique; details: in vivo
[18] = Tmax in healthy human (6 volunteers) at 1 g, po administered as single dose by gas liquid chromatography; details: in vivo
[19] = Total serum concentration in healthy human (6 volunteers) at 1 g, po administered as single dose measured after 12 hrs by gas liquid chromatography; details: read-out: Drug uptake
[20] = Fraction unbound in healthy human (6 volunteers) serum at 1 g, po administered as single dose measured after 0.66 hrs
[21] = Total serum concentration in healthy human (6 volunteers) at 1 g, po administered as single dose measured after 8 hrs by gas liquid chromatography; details: read-out: Drug uptake
[22] = Fraction unbound in healthy human (6 volunteers) serum at 1 g, po administered as single dose measured after 1.5 hrs
[23] = Fraction unbound in healthy human (6 volunteers) serum at 1 g, po administered as single dose measured after 12 hrs
[24] = system: Serum; assay: Unbound serum concentration in healthy human (6 volunteers) at 1 g, po administered as single dose measured after 12 hrs by enzyme multiple immunotechnique; details: in vivo
[25] = Fraction unbound in healthy human (6 volunteers) serum at 1 g, po administered as single dose measured after 6 hrs
[26] = Total serum concentration in healthy human (6 volunteers) at 1 g, po administered as single dose measured after 3 hrs by gas liquid chromatography; details: read-out: Drug uptake
[27] = Total serum concentration in healthy human (6 volunteers) at 1 g, po administered as single dose measured after 2 hrs by gas liquid chromatography; details: read-out: Drug uptake
[28] = Total serum concentration in healthy human (6 volunteers) at 1 g, po administered as single dose measured after 24 hrs by gas liquid chromatography; details: read-out: Drug uptake
[29] = system: Serum; assay: Unbound serum concentration in healthy human (6 volunteers) at 1 g, po administered as single dose measured after 14 hrs by enzyme multiple immunotechnique; details: in vivo
[30] = system: Serum; assay: Unbound serum concentration in healthy human (6 volunteers) at 1 g, po administered as single dose measured after 6 hrs by enzyme multiple immunotechnique; details: in vivo
[31] = Fraction unbound in healthy human (6 volunteers) serum at 1 g, po administered as single dose measured after 5 hrs
[32] = Total serum concentration in healthy human (6 volunteers) at 1 g, po administered as single dose measured after 14 hrs by gas liquid chromatography; details: read-out: Drug uptake
[33] = system: Homo sapiens; assay: fAUC in healthy human (6 volunteers) at 1 g, po administered as single dose by gas liquid chromatography; details: in vivo
[34] = Total serum concentration in healthy human (6 volunteers) at 1 g, po administered as single dose measured after 0.66 hrs by gas liquid chromatography; details: read-out: Drug uptake
[35] = Fraction unbound in healthy human (6 volunteers) serum at 1 g, po administered as single dose measured after 10 hrs
[36] = Total serum concentration in healthy human (6 volunteers) at 1 g, po administered as single dose measured after 30 hrs by gas liquid chromatography; details: read-out: Drug uptake
[37] = Fraction unbound in healthy human (6 volunteers) serum at 1 g, po administered as single dose measured after 8 hrs
[38] = Cmax in healthy human (6 volunteers) at 1 g, po administered as single dose by gas liquid chromatography; parameters: dose 1 g, route oral; details: in vivo
[39] = Terminal half life in healthy human (6 volunteers) at 1 g, po administered as single dose by gas liquid chromatography; details: in vivo, read-out: beta t1/2 (converted)
[40] = system: Serum; assay: Unbound serum concentration in healthy human (6 volunteers) at 1 g, po administered as single dose measured after 30 hrs by enzyme multiple immunotechnique; details: in vivo
[41] = system: Serum; assay: Unbound serum concentration in healthy human (6 volunteers) at 1 g, po administered as single dose measured after 10 hrs by enzyme multiple immunotechnique; details: in vivo
[42] = Total serum concentration in healthy human (6 volunteers) at 1 g, po administered as single dose measured after 39 hrs by gas liquid chromatography; details: read-out: Drug uptake
[43] = system: Serum; assay: Unbound serum concentration in healthy human (6 volunteers) at 1 g, po administered as single dose measured after 2 hrs by enzyme multiple immunotechnique; details: in vivo
[44] = system: Serum; assay: Unbound serum concentration in healthy human (6 volunteers) at 1 g, po administered as single dose measured after 24 hrs by enzyme multiple immunotechnique; details: in vivo
[45] = Fraction unbound in healthy human (6 volunteers) serum at 1 g, po administered as single dose measured after 14 hrs
[46] = Total serum concentration in healthy human (6 volunteers) at 1 g, po administered as single dose measured after 4 hrs by gas liquid chromatography; details: read-out: Drug uptake
[47] = Total serum concentration in healthy human (6 volunteers) at 1 g, po administered as single dose measured after 1.5 hrs by gas liquid chromatography; details: read-out: Drug uptake
[48] = system: Serum; assay: Unbound serum concentration in healthy human (6 volunteers) at 1 g, po administered as single dose measured after 4 hrs by enzyme multiple immunotechnique; details: in vivo
[49] = Total serum concentration in healthy human (6 volunteers) at 1 g, po administered as single dose measured after 6 hrs by gas liquid chromatography; details: read-out: Drug uptake
[50] = Drug metabolism in healthy human (6 volunteers) assessed as excretion of valproic acid glucuronide in urine at 1 g, po administered as single dose measured upto 48 hrs by gas liquid chromatography; details: in vivo
[51] = Fraction unbound in healthy human (6 volunteers) serum at 1 g, po administered as single dose
[52] = Total AUC in healthy human (6 volunteers) at 1 g, po administered as single dose by gas liquid chromatography; parameters: dose 1 g, time AUCmax, route oral; details: in vivo
[53] = system: Serum; assay: Unbound serum concentration in healthy human (6 volunteers) at 1 g, po administered as single dose measured after 1.5 hrs by enzyme multiple immunotechnique; details: in vivo
[54] = Total serum concentration in healthy human (6 volunteers) at 1 g, po administered as single dose measured after 5 hrs by gas liquid chromatography; details: read-out: Drug uptake
[55] = Fraction unbound in healthy human (6 volunteers) serum at 1 g, po administered as single dose measured after 1 hr

## CCCC(CCC)C(=O)[O-].[Na+] [VALPROATE SODIUM]
[1]
  Drug uptake(free): 3.6 µg/mL
[2]
  concentration at 10 h: 61.4 µg/mL
[3]
  fraction unbound at 2 h: 0.058
[4]
  fraction unbound: 0.041
[5]
  fraction unbound at 3 h: 0.049
[6]
  fraction unbound at 0.33 h: 0.04
[7]
  fraction unbound at 4 h: 0.049
[8]
  Drug uptake(free): 0 µg/mL
[9]
  Drug uptake(free): 3.9 µg/mL
[10]
  Drug uptake(free): 2.1 µg/mL
[11]
  Drug uptake(free): 4.7 µg/mL
[12]
  concentration at 1 h: 105 µg/mL
[13]
  concentration at 48 h: 10.6 µg/mL
[14]
  Drug uptake(free): 5.3 µg/mL
[15]
  Drug uptake(free): 0 µg/mL
[16]
  concentration at 0.33 h: 52.3 µg/mL
[17]
  Drug uptake(free): 4.9 µg/mL
[18]
  Tmax: 2 h
[19]
  concentration at 12 h: 54.1 µg/mL
[20]
  fraction unbound at 0.66 h: 0.052
[21]
  concentration at 8 h: 66.9 µg/mL
[22]
  fraction unbound at 1.5 h: 0.042
[23]
  fraction unbound at 12 h: 0.037
[24]
  Drug uptake(free): 1.9 µg/mL
[25]
  fraction unbound at 6 h: 0.044
[26]
  concentration at 3 h: 96.3 µg/mL
[27]
  concentration at 2 h: 105 µg/mL
[28]
  concentration at 24 h: 33.3 µg/mL
[29]
  Drug uptake(free): 1.2 µg/mL
[30]
  Drug uptake(free): 3.8 µg/mL
[31]
  fraction unbound at 5 h: 0.04
[32]
  concentration at 14 h: 47.5 µg/mL
[33]
  fAUC: 84.2 µg·h/mL
[34]
  concentration at 0.66 h: 95.2 µg/mL
[35]
  fraction unbound at 10 h: 0.046
[36]
  concentration at 30 h: 23.4 µg/mL
[37]
  fraction unbound at 8 h: 0.059
[38]
  Cmax: 108 µg/mL
[39]
  half-life: 14.9 h
[40]
  Drug uptake(free): 0 µg/mL
[41]
  Drug uptake(free): 2.7 µg/mL
[42]
  concentration at 39 h: 15.3 µg/mL
[43]
  Drug uptake(free): 6.1 µg/mL
[44]
  Drug uptake(free): 0 µg/mL
[45]
  fraction unbound at 14 h: 0.026
[46]
  concentration at 4 h: 92.9 µg/mL
[47]
  concentration at 1.5 h: 103 µg/mL
[48]
  Drug uptake(free): 4.6 µg/mL
[49]
  concentration at 6 h: 85.9 µg/mL
[50]
  Drug metabolism: 176.6 mg
[51]
  fraction unbound: 0.049
[52]
  AUC: 2120 µg·h/mL
[53]
  Drug uptake(free): 4.3 µg/mL
[54]
  concentration at 5 h: 88.6 µg/mL
[55]
  fraction unbound at 1 h: 0.051
